Test results: patent US20120264827A1, “SULFANYLAMIDE DERIVATIVES, USES THEREOF AND COMPOSITIONS COMPRISING THEM” (YISSUM RESEARCH DEVELOPMENT COMPANY OF THE HEBREW …, priority 2009, published 2012)
Like-named read-outs stand apart in the source and are kept apart here.

Columns and labels:
[1] = system: maximal electroshock seizure (MES); experiment: Maximal electroshock seizure test (MES), mice, intraperitoneal; assay type: in vivo; conditions: ip;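 further: adult male CF no. 1 albino mice of 18–25 g, given compound intraperitoneally as a 0.5% methylcellulose suspension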
[2] = system: maximal electroshock seizure (MES); experiment: Maximal electroshock seizure test (MES), rats, oral; conditions: Rattus norvegicus, po, read-out: Anti-MES activity (number of animals protected/number of animals tested);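 further: adult male Sprague-Dawley rats received test compounds by mouth as a suspension in 0.5% methylcellulose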
Method: The tested compounds were suspended in 0.5% methylcellulose and administered (a) intraperitioneally (ip) to adult male CF no. 1 albino mice (18-25 g) in volume of 0.01 mL/g body weight and (b) orally to adult male Sprague-Dawley albino rats (100-150 g) in volume of 0.04 mL per 10 g of body weight.
The TD50 was determined by varying the dose of the tested compounds until four points were established between the dose level that induced no signs of minimal motor impairment in any of the animals and the dose at which all the animals were considered impaired. […] The PIs were calculated by dividing the TD50 by the ED50.

[3] = system: subcutaneous metrazol (pentylenetetrazol) seizure; experiment: Subcutaneous metrazol seizure threshold test (scMet), mice, intraperitoneal; assay type: in vivo; conditions: ip;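 further: adult male CF no. 1 albino mice weighing 18-25 g, dosed intraperitoneally with compounds suspended in 0.5% methylcellulose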
[4] = 30 mg/kg, 0.5 h after administration
[5] = 30 mg/kg, 4 h after administration
[6] = 100 mg/kg, 0.5 h after administration
[7] = 100 mg/kg, 4 h after administration
[8] = 300 mg/kg, 0.5 h after administration
[9] = 300 mg/kg, 4 h after administration

Row | SMILES | MES (number of animals protected/number of animals tested) [1, 4] | MES (number of animals protected/number of animals tested) [1, 5] | MES (number of animals protected/number of animals tested) [1, 6] | MES (number of animals protected/number of animals tested) [1, 7] | MES (number of animals protected/number of animals tested) [1, 8] | MES (number of animals protected/number of animals tested) [1, 9] | responders at 30 mg/kg ([2]; 0.5 h) [%] | responders at 30 mg/kg ([2]; 1 h) [%] | responders at 30 mg/kg ([2]; 2 h) [%] | responders at 30 mg/kg ([2]; 4 h) [%] | responders at 30 mg/kg ([2]; […]) [%] | scMet (number of animals protected/number of animals tested) [3, 4] | scMet (number of animals protected/number of animals tested) [3, 5] | scMet (number of animals protected/number of animals tested) [3, 6] | scMet (number of animals protected/number of animals tested) [3, 7] | scMet (number of animals protected/number of animals tested) [3, 8] | scMet (number of animals protected/number of animals tested) [3, 9] | melting point [°C]
1 | CC(C)(C)CC(=O)Nc1ccc(S(N)(=O)=O)cc1 [Compound 15, 3,3-Dimethyl-N-(4-sulfamoyl-phenyl)-butyramide] | 0/1 | 0/1 | 5/7 | 1/3 | 4/5 | 1/1 | 25 | 75 | 100 | 100 | 75 | 0/1 0/1 0/1 | 0/1 0/1 0/1 | 0/1 0/1 0/1 | 0/1 0/1 0/1 | 0/1 0/1 0/1 | 0/1 0/1 0/1 | 
2 | CCC(CC)C(=O)NCCc1ccc(S(N)(=O)=O)cc1 [Compound 29, 2-Ethyl-N-[2-(4-sulfamoyl-phenyl)-ethyl]-butyramide] | 0/1 | 1/1 | 0/3 | 1/3 | 0/1 | 1/1 | 50 | 75 | 25 | 25 | 25 | 0/1 0/1 0/1 | 0/1 0/1 0/1 | 0/1 0/1 0/1 | 0/1 0/1 0/1 | 0/1 0/1 0/1 | 0/1 0/1 0/1 | 
3 | CC(C)(C)C(=O)NCc1ccc(S(N)(=O)=O)cc1 [Compound 26, 2,2-Dimethyl-N-(4-sulfamoyl-benzyl)-propionamide] | 0/1 | 0/1 | 0/3 | 0/3 | 0/1 | 0/1 |  |  |  |  |  | 0/1 0/1 0/1 | 0/1 0/1 0/1 | 0/1 0/1 0/1 | 0/1 0/1 0/1 | 0/1 0/1 0/1 | 0/1 0/1 0/1 | 157 to 158
4 | CCC(C)C(=O)Nc1ccc(S(N)(=O)=O)cc1 (stereo not drawn) [Compound 10, 2-Methyl-N-(4-sulfamoyl-phenyl)-butyramide] | 1/1 | 1/1 | 3/3 | 3/3 | 1/1 | 1/1 | 50 | 100 | 100 | 100 | 50 | 0/1 0/1 0/1 | 0/1 0/1 0/1 | 0/1 0/1 0/1 | 0/1 0/1 0/1 | 0/1 0/1 0/1 | 0/1 0/1 0/1 | 
5 | CC(C)C(C(=O)Nc1ccc(S(N)(=O)=O)cc1)C(C)C [Compound 13, 2-Isopropyl-3-methyl-N-(4-sulfamoyl-phenyl)-butyramide] | 0/1 | 0/1 | 0/3 | 0/3 | 0/1 | 0/1 | 0 | 0 | 0 | 50 | 0 | 0/1 0/1 0/1 | 0/1 0/1 0/1 | 0/1 0/1 0/1 | 0/1 0/1 0/1 | 0/1 0/1 0/1 | 0/1 0/1 0/1 | 
